According to ChEMBL document CHEMBL5214900, “Design, Synthesis, and Biological Evaluation of Membrane-Active Bakuchiol Derivatives as Effective Broad-Spectrum Antibacterial Agents” (J Med Chem, 2021):
≈ marks a conversion by molar mass, not a printed value. Calls of active or inactive are those of the source. The rule behind the calls is not given here.

Legend:
Staphylococcus aureus [1] = assay: Antibacterial activity against methicillin-resistant Staphylococcus aureus N315 assessed as inhibition of bacterial growth incubated for 24 hrs by CLSI based broth dilution method; assay type: functional
[2] = Hemolytic activity in rabbit RBC measured after 1 hrs by multimode reader assay; assay type: toxicity, cell-based, Oryctolagus cuniculus, Erythrocyte; details: rabbit red blood cells (erythrocytes)
Acinetobacter baumannii [3] = assay: Antibacterial activity against Acinetobacter baumannii R2889 assessed as inhibition of bacterial growth incubated for 24 hrs by CLSI based broth dilution method; assay type: functional
Klebsiella pneumoniae = assay: Antibacterial activity against Klebsiella pneumoniae ATCC 14581 assessed as inhibition of bacterial growth incubated for 24 hrs by CLSI based broth dilution method; assay type: functional
Staphylococcus aureus [4] = assay: Antibacterial activity against Staphylococcus aureus ATCC 29213 assessed as fold increase in MIC incubated for 24 hrs in presence of 4.5 mM K+ by CLSI based broth dilution method; assay type: functional
Staphylococcus aureus [5] = assay: Antibacterial activity against Staphylococcus aureus ATCC 29213 assessed as fold increase in MIC incubated for 24 hrs in presence of 2.5 mM Ca2+ by CLSI based broth dilution method; assay type: functional
Staphylococcus aureus [6] = assay: Antibacterial activity against Staphylococcus aureus ATCC 29213 assessed as fold increase in MIC incubated for 24 hrs in presence of 1 mM Mg2+ by CLSI based broth dilution method; assay type: functional
Staphylococcus aureus [7] = assay: Antibacterial activity against Staphylococcus aureus NCTC10442 assessed as fold increase in MIC incubated for 24 hrs in presence of 4.5 mM K+ by CLSI based broth dilution method; assay type: functional
Staphylococcus aureus [8] = assay: Antibacterial activity against Staphylococcus aureus NCTC10442 assessed as fold increase in MIC incubated for 24 hrs in presence of 1 mM Mg2+ by CLSI based broth dilution method; assay type: functional
Acinetobacter baumannii [9] = assay: Antibacterial activity against Acinetobacter baumannii ATCC 17978 assessed as fold increase in MIC incubated for 24 hrs in presence of 140 mM Na+ by CLSI based broth dilution method; assay type: functional
Staphylococcus aureus [10] = assay: Bactericidal activity against Staphylococcus aureus ATCC 29213 assessed as bacterial killing at 8 times MIC measured after 8 hrs by time-killing assay relative to control; assay type: functional
Staphylococcus aureus [11] = assay: Bactericidal activity against Staphylococcus aureus ATCC 29213 assessed as bacterial killing at 8 times MIC measured after 24 hrs by time-killing assay relative to control; assay type: functional
Staphylococcus aureus [12] = assay: Bactericidal activity against Staphylococcus aureus ATCC 29213 assessed as log reduction in viable bacteria at 8 times MIC measured after 8 hrs by time-killing assay; assay type: functional
Escherichia coli [13] = assay: Bactericidal activity against Escherichia coli ATCC 25922 assessed as log reduction in viable bacteria at 4 times MIC measured after 2 hrs by time-killing assay; assay type: functional
Escherichia coli [14] = assay: Bactericidal activity against Escherichia coli ATCC 25922 assessed as inhibition of bacterial regrowth at 4 to 8 times MIC measured after 24 hrs by time-killing assay; assay type: functional, organism-based
Cell membrane = assay: Disruption of membrane integrity in Pseudomonas aeruginosa ATCC 9027 assessed as increase in fluorescence intensity at 1 to 8 times MIC by SYTOX green dye based fluorescence analysis; assay type: subcellular; details: DDE = dose-dependent effect
Pseudomonas aeruginosa = assay: Induction of cell death in Pseudomonas aeruginosa ATCC 9027 assessed as residual living cells at 8 times MIC incubated for 2 hrs by SYTO 9/PI staining based fluorescence analysis relative to control; assay type: functional
Lipoteichoic acid [15] = assay: Displacement of BODIPY-TR-cadaverine from Bacillus subtilis Lipoteichoic acid at 1 times MIC measured for 30 mins by fluorescence based microplate reader assay relative to control
Lipoteichoic acid [16] = assay: Displacement of BODIPY-TR-cadaverine from Bacillus subtilis Lipoteichoic acid at 2 times MIC measured for 30 mins by fluorescence based microplate reader assay relative to control
Lipoteichoic acid [17] = assay: Displacement of BODIPY-TR-cadaverine from Bacillus subtilis Lipoteichoic acid at 8 times MIC measured for 30 mins by fluorescence based microplate reader assay relative to control
Lipopolysaccharide (LPS) [18] = assay: Displacement of BODIPY-TR-cadaverine from Escherichia coli Lipopolysaccharide at 2 times MIC measured for 30 mins by fluorescence based microplate reader assay relative to control
Lipopolysaccharide (LPS) [19] = assay: Displacement of BODIPY-TR-cadaverine from Escherichia coli Lipopolysaccharide at 4 times MIC measured for 30 mins by fluorescence based microplate reader assay relative to control
Lipopolysaccharide (LPS) [20] = assay: Displacement of BODIPY-TR-cadaverine from Escherichia coli Lipopolysaccharide at 8 times MIC measured for 30 mins by fluorescence based microplate reader assay relative to control
Staphylococcus aureus [21] = assay: Induction of drug resistance in Staphylococcus aureus ATCC 29213 assessed as fold change in MIC measured after 19 passages by CLSI based broth dilution method; assay type: functional
[22] = Cytotoxicity against mouse NCTC clone 929 cells assessed as cell viability at 6.25 ug/ml incubated for 24 hrs by CCK-8 assay relative to control; assay type: toxicity, cell-based; details: at 6.25 µg/mL, read-out: Activity
[23] = Cytotoxicity against mouse NCTC clone 929 cells assessed as cell viability at 12.5 ug/ml incubated for 24 hrs by CCK-8 assay relative to control; assay type: toxicity, cell-based; details: at 12.5 µg/mL, read-out: Activity
[24] = Cytotoxicity against mouse NCTC clone 929 cells assessed as cell viability at 50 ug/ml incubated for 24 hrs by CCK-8 assay relative to control; assay type: toxicity, cell-based; details: at 50 µg/mL, read-out: Activity
[25] = Cytotoxicity against HEK293 cells assessed as cell viability at 3.125 ug/ml incubated for 24 hrs by CCK-8 assay relative to control; assay type: toxicity, cell-based; details: human, at 3.125 µg/mL, read-out: Activity
[26] = Cytotoxicity against HEK293 cells assessed as cell viability at 6.25 ug/ml incubated for 24 hrs by CCK-8 assay relative to control; assay type: toxicity, cell-based; details: human, at 6.25 µg/mL, read-out: Activity
[27] = Cytotoxicity against mouse NCTC clone 929 cells assessed as cell viability incubated for 24 hrs by CCK-8 assay; assay type: toxicity, cell-based
[28] = Cytotoxicity against HEK293 cells assessed as cell viability incubated for 24 hrs by CCK-8 assay; assay type: toxicity, cell-based; details: human
Staphylococcus aureus [29] = assay: Antibiofilm activity against Staphylococcus aureus ATCC 29213 assessed reduction in biofilm formation at 0.39 ug/ml measured after 24 hrs by crystal violet staining based assay relative to control; assay type: functional; set-up: scale not given: the % may be the effect or the level left; details: dose 0.39 µg/ml
Escherichia coli [30] = assay: Antibiofilm activity against Escherichia coli ATCC 25922 assessed reduction in biofilm formation at 3.125 ug/ml measured after 24 hrs by crystal violet staining based assay relative to control; assay type: functional; set-up: scale not given: the % may be the effect or the level left; details: dose 3.125 µg/ml
Staphylococcus aureus [31] = assay: Antibacterial activity against Staphylococcus aureus ATCC 29213 assessed as eradication of preformed bacterial biofilm by measuring residual biofilm viability at 12.5 ug/ml incubated for 24 hrs by crystal violet staining based assay relative to control; assay type: functional; details: dose 12.5 µg/ml
Staphylococcus aureus [32] = assay: Antibacterial activity against Staphylococcus aureus ATCC 29213 assessed as eradication of preformed bacterial biofilm by measuring residual biofilm viability at 25 ug/ml incubated for 24 hrs by crystal violet staining based assay relative to control; assay type: functional; details: dose 25 µg/ml
Escherichia coli [33] = assay: Antibacterial activity against Escherichia coli ATCC 25922 assessed as eradication of preformed bacterial biofilm by measuring residual biofilm viability at 3.125 ug/ml incubated for 24 hrs by crystal violet staining based assay relative to control; assay type: functional; details: dose 3.125 µg/ml

SMILES: C=C[C@@](C)(/C=C/c1ccc(OCCCCN(CCCN(C)C)CCCN(C)C)cc1)CCC=C(C)C
- MIC (Staphylococcus aureus [1]): 1.56 µg/mL (≈ 3.13 µM)
- HC50 at 1 h [2]: 113 µg/mL
- MIC (Acinetobacter baumannii [3]): 3.12 µg/mL (≈ 6.28 µM)
- MIC (Klebsiella pneumoniae): 3.12 µg/mL (≈ 6.28 µM)
- fold change (FC) (Staphylococcus aureus [4]): <2
- fold change (FC) (Staphylococcus aureus [5]): <2
- fold change (FC) (Staphylococcus aureus [6]): <2
- fold change (FC) (Staphylococcus aureus [7]): <2
- fold change (FC) (Staphylococcus aureus [8]): <2
- fold change (FC) (Acinetobacter baumannii [9]): <2
- Activity (Staphylococcus aureus [10]): >=99.9%
- Activity (Staphylococcus aureus [11]): 100%
- log(activity) (Staphylococcus aureus [12]): 3.52
- log(activity) (Escherichia coli [13]): 4.28
- Activity (Escherichia coli [14]): Active
- Activity (Cell membrane): Dde
- Activity (Pseudomonas aeruginosa): 0.3%
- Activity (Lipoteichoic acid [15]): 25.4%
- Activity (Lipoteichoic acid [16]): 35.3%
- Activity (Lipoteichoic acid [17]): 57.9%
- Activity (Lipopolysaccharide (LPS) [18]): 53.3%
- Activity (Lipopolysaccharide (LPS) [19]): 64.4%
- Activity (Lipopolysaccharide (LPS) [20]): 85.6%
- fold change (FC) (Staphylococcus aureus [21]): < 4
- viability at 24 h, 6.25 ug/ml [22]: 84.9%
- viability at 24 h, 12.5 ug/ml [23]: 84.5%
- viability at 24 h, 50 ug/ml [24]: 36%
- viability at 24 h, 3.125 ug/ml [25]: 94.1%
- viability at 24 h, 6.25 ug/ml [26]: 93.8%
- CC50 at 24 h [27]: 36.8 µg/mL (≈ 73.9 µM)
- CC50 at 24 h [28]: 28.6 µg/mL (≈ 57.5 µM)
- Activity (Staphylococcus aureus [29]): 1.65%
- Activity (Escherichia coli [30]): 92.62%
- Activity (Staphylococcus aureus [31]): 24.19%
- Activity (Staphylococcus aureus [32]): 11.49%
- Activity (Escherichia coli [33]): 49.85%
